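Each compound was tested at five concentrations against cells in 96-well plates for 48 hours. GI50 is the concentration that inhibits growth by half.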 Activity calls are given as the source filed them. No stated cut-off is given here; in the data, active = GI50 up to about 1.1 µM and inactive = higher.
What was measured:
Assay in all cases: growth of human tumour cells (NCI), 48 h
K562 = test system: K562
RXF 631 = test system: RXF 631
NCI-H522 = test system: NCI-H522
SK-OV-3 = test system: SK-OV-3
U-251 = test system: U-251
SNB-75 = test system: SNB-75
EKVX = test system: EKVX
RXF 393 = test system: RXF 393
RPMI-8226 = test system: RPMI-8226
SK-MEL-2 = test system: SK-MEL-2
OVCAR-3 = test system: OVCAR-3
LXFL 529 = test system: LXFL 529
UACC-257 = test system: UACC-257
SF-539 = test system: SF-539
786-0 = test system: 786-0
NCI-H460 = test system: NCI-H460
UACC-62 = test system: UACC-62
SK-MEL-28 = test system: SK-MEL-28
NCI-H226 = test system: NCI-H226
HT-29 = test system: HT-29
XF498 = test system: XF498
TK-10 = test system: TK-10
COLO 205 = test system: COLO 205
SK-MEL-5 = test system: SK-MEL-5
UO-31 = test system: UO-31
A498 = test system: A498
OVCAR-5 = test system: OVCAR-5
M19-MEL = test system: M19-MEL
SNB-19 = test system: SNB-19
SNB-78 = test system: SNB-78
CAKI-1 = test system: CAKI-1
A549 = test system: A549
M14 = test system: M14
KM12 = test system: KM12
SR = test system: SR
NCI-H23 = test system: NCI-H23
DMS-114 = test system: DMS-114
HOP-92 = test system: HOP-92
OVCAR-4 = test system: OVCAR-4
SF-295 = test system: SF-295
SW-620 = test system: SW-620
ACHN = test system: ACHN
SN12C = test system: SN12C
OVCAR-8 = test system: OVCAR-8
HOP-18 = test system: HOP-18
LOX IMVI = test system: LOX IMVI
DMS-273 = test system: DMS-273
HOP-62 = test system: HOP-62
HCT-116 = test system: HCT-116
Malme-3M = test system: Malme-3M
IGROV-1 = test system: IGROV-1
HL-60 = test system: HL-60
DLD-1 = test system: DLD-1
SF-268 = test system: SF-268
MOLT-4 = test system: MOLT-4
CCRF-CEM = test system: CCRF-CEM
KM-20L2 = test system: KM-20L2
HCT-15 = test system: HCT-15
Hs-578T = test system: Hs-578T
T47D = test system: T47D
MCF7 = test system: MCF7
MDA-MB-231 = test system: MDA-MB-231
DU-145 = test system: DU-145
PC-3 = test system: PC-3
BT-549 = test system: BT-549
HCC 2998 = test system: HCC 2998
MDA-N = test system: MDA-N
NCI/ADR-RES = test system: NCI/ADR-RES
MDA-MB-435 = test system: MDA-MB-435

CC1(C)O/C(=C\c2ccccc2)C(=O)/C(=C/c2ccccc2)O1
GI50 (K562): 27 µM (inactive)
GI50 (RXF 631): 33.8 µM (inactive)
GI50 (NCI-H522): 3.4 µM (inactive)
GI50 (SK-OV-3): 72.6 µM (inactive)
GI50 (U-251): 28.4 µM (inactive)
GI50 (SNB-75): 31.6 µM (inactive)
GI50 (EKVX): 37.9 µM (inactive)
GI50 (RXF 393): 13.9 µM (inactive)
GI50 (RPMI-8226): 16.3 µM (inactive)
GI50 (SK-MEL-2): 18.4 µM (inactive)
GI50 (OVCAR-3): 27.1 µM (inactive)
GI50 (LXFL 529): 20.4 µM (inactive)
GI50 (UACC-257): 22.5 µM (inactive)
GI50 (SF-539): 67 µM (inactive)
GI50 (786-0): 37.8 µM (inactive)
GI50 (NCI-H460): 59.6 µM (inactive)
GI50 (UACC-62): 25.8 µM (inactive)
GI50 (SK-MEL-28): 50.4 µM (inactive)
GI50 (NCI-H226): 17.7 µM (inactive)
GI50 (HT-29): 29.4 µM (inactive)
GI50 (XF498): 18.5 µM (inactive)
GI50 (TK-10): 44.2 µM (inactive)
GI50 (COLO 205): 43.3 µM (inactive)
GI50 (SK-MEL-5): 14.4 µM (inactive)
GI50 (UO-31): 19.1 µM (inactive)
GI50 (A498): > 100 µM (inactive)
GI50 (OVCAR-5): 14.7 µM (inactive)
GI50 (M19-MEL): 28.6 µM (inactive)
GI50 (SNB-19): 47.4 µM (inactive)
GI50 (SNB-78): 38.5 µM (inactive)
GI50 (CAKI-1): 55.3 µM (inactive)
GI50 (A549): 23.3 µM (inactive)
GI50 (M14): 34.4 µM (inactive)
GI50 (KM12): 53.8 µM (inactive)
GI50 (SR): 20.5 µM (inactive)
GI50 (NCI-H23): 20 µM (inactive)
GI50 (DMS-114): 17.3 µM (inactive)
GI50 (HOP-92): 29.9 µM (inactive)
GI50 (OVCAR-4): 56.6 µM (inactive)
GI50 (SF-295): 44.9 µM (inactive)
GI50 (SW-620): 55.1 µM (inactive)
GI50 (ACHN): 33.8 µM (inactive)
GI50 (SN12C): 47.6 µM (inactive)
GI50 (OVCAR-8): 45.2 µM (inactive)
GI50 (HOP-18): > 100 µM (inactive)
GI50 (LOX IMVI): 28.6 µM (inactive)
GI50 (DMS-273): 42.6 µM (inactive)
GI50 (HOP-62): 74.8 µM (inactive)
GI50 (HCT-116): 26.4 µM (inactive)
GI50 (Malme-3M): 38 µM (inactive)
GI50 (IGROV-1): 51.4 µM (inactive)
GI50 (HL-60): 9.25 µM (inactive)
GI50 (DLD-1): 42.3 µM (inactive)
GI50 (SF-268): 57.4 µM (inactive)
GI50 (MOLT-4): 14.7 µM (inactive)
GI50 (CCRF-CEM): 15.8 µM (inactive)

Cn1nc(-c2ccccc2)c(C(=O)/C=C/c2ccccc2)c(N2CCCC2)c1=O
GI50 (K562): 7.14 µM (inactive)
GI50 (RXF 631): 29 µM (inactive)
GI50 (NCI-H522): 4.83 µM (inactive)
GI50 (SK-OV-3): 22.7 µM (inactive)
GI50 (U-251): 12.9 µM (inactive)
GI50 (EKVX): 20.4 µM (inactive)
GI50 (RXF 393): 6.59 µM (inactive)
GI50 (RPMI-8226): 6.35 µM (inactive)
GI50 (LXFL 529): 11.9 µM (inactive)
GI50 (SF-539): 13.2 µM (inactive)
GI50 (786-0): 13.2 µM (inactive)
GI50 (NCI-H460): 10.3 µM (inactive)
GI50 (UACC-62): 13.9 µM (inactive)
GI50 (SK-MEL-28): 16.6 µM (inactive)
GI50 (HT-29): 12.6 µM (inactive)
GI50 (KM-20L2): 14.5 µM (inactive)
GI50 (XF498): 18.8 µM (inactive)
GI50 (TK-10): 22.5 µM (inactive)
GI50 (COLO 205): 14.9 µM (inactive)
GI50 (SK-MEL-5): 15.3 µM (inactive)
GI50 (UO-31): 21.4 µM (inactive)
GI50 (A498): 11.4 µM (inactive)
GI50 (M19-MEL): 16.6 µM (inactive)
GI50 (A549): 19.9 µM (inactive)
GI50 (M14): 15.7 µM (inactive)
GI50 (NCI-H23): 10.4 µM (inactive)
GI50 (DMS-114): 11.4 µM (inactive)
GI50 (HOP-92): 1.64 µM (inactive)
GI50 (SW-620): 17.9 µM (inactive)
GI50 (ACHN): 12.6 µM (inactive)
GI50 (SN12C): 20.7 µM (inactive)
GI50 (OVCAR-8): 16.9 µM (inactive)
GI50 (HOP-18): 16.4 µM (inactive)
GI50 (LOX IMVI): 15.1 µM (inactive)
GI50 (HCT-15): 13.5 µM
GI50 (DMS-273): 14.7 µM (inactive)
GI50 (HOP-62): 11.9 µM (inactive)
GI50 (HCT-116): 5.94 µM (inactive)
GI50 (IGROV-1): 21.2 µM (inactive)
GI50 (HL-60): 4.34 µM (inactive)
GI50 (DLD-1): 12.1 µM (inactive)
GI50 (SF-268): 13.7 µM (inactive)
GI50 (MOLT-4): 4.39 µM (inactive)
GI50 (CCRF-CEM): 7.8 µM (inactive)

COc1nc(C(Cl)(Cl)Cl)c(Cl)c(OC)c1Cl [PENCLOMEDINE]
GI50 (K562): 26.4 µM (inactive)
GI50 (RXF 631): 17.6 µM (inactive)
GI50 (NCI-H522): 33.1 µM (inactive)
GI50 (SK-OV-3): 16.2 µM (inactive)
GI50 (U-251): 36.1 µM (inactive)
GI50 (SNB-75): 7.76 µM (inactive)
GI50 (EKVX): 40.8 µM (inactive)
GI50 (Hs-578T): 33.3 µM (inactive)
GI50 (RXF 393): 36.7 µM (inactive)
GI50 (RPMI-8226): 24.1 µM (inactive)
GI50 (SK-MEL-2): 35.1 µM (inactive)
GI50 (OVCAR-3): 38.8 µM (inactive)
GI50 (UACC-257): 43.8 µM (inactive)
GI50 (T47D): 37.4 µM (inactive)
GI50 (SF-539): 40.8 µM (inactive)
GI50 (786-0): 6.59 µM (inactive)
GI50 (NCI-H460): 21.9 µM (inactive)
GI50 (UACC-62): 22.4 µM (inactive)
GI50 (SK-MEL-28): 39.7 µM (inactive)
GI50 (NCI-H226): 34.4 µM (inactive)
GI50 (HT-29): 14.6 µM (inactive)
GI50 (KM-20L2): 47 µM (inactive)
GI50 (XF498): 25.3 µM (inactive)
GI50 (TK-10): 52.6 µM (inactive)
GI50 (MCF7): 17.7 µM (inactive)
GI50 (COLO 205): 44.1 µM (inactive)
GI50 (MDA-MB-231): 38.3 µM (inactive)
GI50 (SK-MEL-5): 22.5 µM (inactive)
GI50 (UO-31): 40.8 µM (inactive)
GI50 (DU-145): 38.7 µM (inactive)
GI50 (A498): 52.6 µM (inactive)
GI50 (OVCAR-5): 42.9 µM (inactive)
GI50 (M19-MEL): 31.5 µM (inactive)
GI50 (SNB-19): 27.3 µM (inactive)
GI50 (PC-3): 39.6 µM (inactive)
GI50 (BT-549): 38 µM (inactive)
GI50 (SNB-78): 37.1 µM (inactive)
GI50 (CAKI-1): 40.3 µM (inactive)
GI50 (A549): 40.5 µM (inactive)
GI50 (M14): 40 µM (inactive)
GI50 (HCC 2998): 46.1 µM (inactive)
GI50 (MDA-N): 26.9 µM (inactive)
GI50 (KM12): 33.7 µM (inactive)
GI50 (SR): 37.1 µM (inactive)
GI50 (NCI-H23): 42.2 µM (inactive)
GI50 (DMS-114): 25.4 µM (inactive)
GI50 (HOP-92): 28.2 µM (inactive)
GI50 (OVCAR-4): 25.7 µM (inactive)
GI50 (SF-295): 40.2 µM (inactive)
GI50 (SW-620): 39.4 µM (inactive)
GI50 (ACHN): 39.3 µM (inactive)
GI50 (SN12C): 39 µM (inactive)
GI50 (OVCAR-8): 21.2 µM (inactive)
GI50 (HOP-18): 36.1 µM (inactive)
GI50 (LOX IMVI): 29 µM (inactive)
GI50 (NCI/ADR-RES): 24.3 µM (inactive)
GI50 (HCT-15): 40.6 µM
GI50 (DMS-273): 40.4 µM (inactive)
GI50 (HOP-62): 12.1 µM (inactive)
GI50 (HCT-116): 41.9 µM (inactive)
GI50 (Malme-3M): 31.2 µM (inactive)
GI50 (MDA-MB-435): 42.5 µM (inactive)
GI50 (IGROV-1): 14.2 µM (inactive)
GI50 (HL-60): 7.46 µM (inactive)
GI50 (DLD-1): 42.6 µM (inactive)
GI50 (SF-268): 36.1 µM (inactive)
GI50 (MOLT-4): 19.4 µM (inactive)
GI50 (CCRF-CEM): 32.5 µM (inactive)

From ChEMBL document CHEMBL1201862, “PubChem BioAssay data set” (2004)
